Assays:
Assay in all cases: relative viability (nuclei count vs DMSO), 5 days (fraction); higher = more cells survive
Avagacestat + Navitoclax = compound: NC(=O)[C@@H](CCC(F)(F)F)N(Cc1ccc(-c2ncon2)cc1F)S(=O)(=O)c1ccc(Cl)cc1 [Avagacestat] + CC1(C)CCC(c2ccc(Cl)cc2)=C(CN2CCN(c3ccc(C(=O)NS(=O)(=O)c4ccc(N[C@H](CCN5CCOCC5)CSc5ccccc5)c(S(=O)(=O)C(F)(F)F)c4)cc3)CC2)C1 [Navitoclax] (partner 0.5 µM)
How it was run: (§1)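 Relative viability was taken as the ratio of nuclei in treated wells to nuclei in vehicle wells. Lung cancer cell lines in 1536-well plates received compounds by pin tool one day after seeding, either one drug alone or a fixed anchor-drug dose plus five library-drug doses (not always all listed) in √10 steps. Nuclei were counted on 4× images after 5 days of treatment, and values are medians of duplicate plates.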

Avagacestat + Tozasertib = compound: NC(=O)[C@@H](CCC(F)(F)F)N(Cc1ccc(-c2ncon2)cc1F)S(=O)(=O)c1ccc(Cl)cc1 [Avagacestat] + Cc1cc(Nc2cc(N3CCN(C)CC3)nc(Sc3ccc(NC(=O)C4CC4)cc3)n2)n[nH]1 [Tozasertib] (partner 0.1 µM)
How it was run: as §1

Avagacestat + Vorinostat = compound: NC(=O)[C@@H](CCC(F)(F)F)N(Cc1ccc(-c2ncon2)cc1F)S(=O)(=O)c1ccc(Cl)cc1 [Avagacestat] + O=C(CCCCCCC(=O)Nc1ccccc1)NO [Vorinostat] (partner 1 µM)
How it was run: as §1

Avagacestat + Crizotinib = compound: NC(=O)[C@@H](CCC(F)(F)F)N(Cc1ccc(-c2ncon2)cc1F)S(=O)(=O)c1ccc(Cl)cc1 [Avagacestat] + C[C@@H](Oc1cc(-c2cnn(C3CCNCC3)c2)cnc1N)c1c(Cl)ccc(F)c1Cl [Crizotinib] (partner 1 µM)
How it was run: as §1

Row | Cell Line | relative viability (Avagacestat + Navitoclax; first compound 0.08 µM) | relative viability (Avagacestat + Navitoclax; first compound 0.253 µM) | relative viability (Avagacestat + Navitoclax; first compound 0.8 µM) | relative viability (Avagacestat + Navitoclax; first compound 2.53 µM) | relative viability (Avagacestat + Navitoclax; first compound 8 µM) | relative viability (Avagacestat + Tozasertib; first compound 0.08 µM) | relative viability (Avagacestat + Tozasertib; first compound 0.253 µM) | relative viability (Avagacestat + Tozasertib; first compound 0.8 µM) | relative viability (Avagacestat + Tozasertib; first compound 2.53 µM) | relative viability (Avagacestat + Tozasertib; first compound 8 µM) | relative viability (Avagacestat + Vorinostat; first compound 0.08 µM) | relative viability (Avagacestat + Vorinostat; first compound 0.253 µM) | relative viability (Avagacestat + Vorinostat; first compound 0.8 µM) | relative viability (Avagacestat + Vorinostat; first compound 2.53 µM) | relative viability (Avagacestat + Vorinostat; first compound 8 µM) | relative viability (Avagacestat + Crizotinib; first compound 0.08 µM) | relative viability (Avagacestat + Crizotinib; first compound 0.253 µM) | relative viability (Avagacestat + Crizotinib; first compound 0.8 µM) | relative viability (Avagacestat + Crizotinib; first compound 2.53 µM) | relative viability (Avagacestat + Crizotinib; first compound 8 µM)
1 | NCI-H2009 | 1.27 | 1.23 | 1.17 | 1.12 | 1.13 | 0.879 | 0.836 | 0.812 | 0.61 | 0.532 | 0.704 | 0.876 | 0.733 | 0.722 | 0.694 | 1.04 | 1.14 | 1.01 | 1.04 | 0.975
2 | NCI-H460 |  | 1.92 | 1.37 | 0.759 | 1.15 | 0.616 | 0.651 | 0.492 | 0.156 | 0.155 | 1.37 | 0.69 | 0.828 | 0.554 | 0.57 | 1.86 | 1.69 | 0.977 | 0.893 | 0.853
3 | 201T | 1.19 | 1.21 | 1.25 | 1.19 | 1.18 | 0.967 | 1.06 | 0.922 | 0.843 | 0.9 | 1.01 | 1.03 | 0.925 | 0.857 | 0.86 | 1.06 | 0.991 | 1.03 | 1.04 | 1.01
4 | ChaGo-K-1 | 0.987 | 0.926 | 1.32 | 1.24 | 1.17 | 0.198 | 0.238 | 0.22 | 0.212 | 0.226 | 0.783 | 0.874 | 0.79 | 0.755 | 0.692 | 1.06 | 1.31 | 1.11 | 1.05 | 0.974
5 | NCI-H1651 | 1.28 | 1.33 | 1.3 | 1.07 | 0.764 | 0.955 | 0.862 | 0.719 | 0.609 | 0.585 | 0.583 | 0.566 | 0.681 | 0.52 | 0.567 | 1 | 0.928 | 0.896 | 0.879 | 0.863
6 | LU99A | 0.869 | 0.8 | 0.776 | 0.852 | 0.777 | 0.246 | 0.238 | 0.244 | 0.235 | 0.273 | 0.611 | 0.541 | 0.624 | 0.468 | 0.481 | 0.521 | 0.646 | 0.571 | 0.595 | 0.628
7 | LC-2-ad | 0.652 | 0.528 | 0.534 | 0.423 | 0.428 | 0.453 | 0.384 | 0.427 | 0.197 | 0.367 | 0.73 | 0.847 | 0.74 | 0.654 | 0.595 | 0.548 | 0.367 | 0.458 | 0.435 | 0.391
8 | NCI-H1975 | 1.26 | 1.28 | 1.25 | 1.07 | 1.02 | 1.01 | 0.945 | 0.928 | 0.603 | 0.367 | 0.823 | 0.866 | 0.765 | 0.694 | 0.628 | 0.989 | 1.1 | 1.1 | 0.926 | 0.905
9 | NCI-H322M | 1.24 | 1.16 | 1.22 | 1.14 | 1.07 | 0.491 | 0.51 | 0.5 | 0.454 | 0.474 | 0.811 | 0.779 | 0.855 | 0.821 | 0.777 | 0.874 | 1.03 | 0.952 | 0.934 | 0.787
10 | NCI-H1666 | 1.15 | 1.11 | 1.17 | 0.955 | 1.02 | 0.726 | 0.602 | 0.706 | 0.582 | 0.586 | 1.17 | 1.23 | 1.28 | 1.12 | 1.09 | 1.3 | 1.09 | 1.23 | 1.03 | 0.957
11 | NCI-H1355 | 1.14 | 0.999 | 0.923 | 0.768 | 0.833 | 0.523 | 0.534 | 0.593 | 0.454 | 0.392 | 0.702 | 0.637 | 0.628 | 0.527 | 0.542 | 1.19 | 1.14 | 0.997 | 0.872 | 0.866
12 | PC-3 [JPC-3] | 0.908 | 0.885 | 0.864 | 0.821 | 0.761 | 1.01 | 0.99 | 1.08 | 0.943 | 0.826 | 0.944 | 0.87 | 1.33 | 0.857 | 0.949 | 1.15 | 1.25 | 1.16 | 1.05 | 0.993
13 | UMC-11 | 0.324 | 0.316 | 0.321 | 0.286 | 0.299 | 0.206 | 0.225 | 0.201 | 0.195 | 0.202 | 0.388 | 0.396 | 0.398 | 0.396 | 0.412 | 0.632 | 0.664 | 0.749 | 0.582 | 0.585
14 | NCI-H520 | 1.16 | 1.15 | 1.06 | 0.95 | 1.06 | 0.417 | 0.48 | 0.42 | 0.3 | 0.36 | 0.8 | 0.767 | 0.773 | 0.637 | 0.639 | 0.895 | 0.836 | 0.729 | 0.727 | 0.459
15 | NCI-H727 | 0.408 | 0.461 | 0.596 | 0.339 | 0.459 | 0.614 | 0.686 | 0.592 | 0.489 | 0.489 | 1.27 | 1.19 | 1.21 | 1.18 | 1.19 | 0.986 | 0.956 | 1.08 | 0.946 | 0.775
16 | SK-MES-1 | 1.32 | 1.29 | 1.27 | 1.2 | 1.27 | 1.13 | 1.23 | 1.07 | 0.874 | 0.783 | 1.12 | 1.35 | 1.29 | 1.06 | 1.02 | 0.943 | 1.06 | 0.97 | 0.902 | 0.915
